# Assay results taken from ChEMBL document CHEMBL2346657, “Synthesis of novel 2-amino-4-(5'-substituted 2'-phenyl-1H-indol-3'-yl)-6-aryl-4H-pyran-3-carbonitrile derivatives as antimicrobial and antioxidant agents” (2013).
# Calls of active or inactive are those of the source. How the calls were made is not given here.
# Test system: not listed separately
# Test: Antioxidant activity assessed as metal chelating activity by measuring inhibition of ferrozine-Fe2+ complex formation at 25 to 100 ug/ml
# Type: functional
# Conditions: not given
row,Structure (SMILES),Activity
1,Nc1n[nH]c2c1C(c1c(-c3ccccc3)[nH]c3ccccc13)C=C(c1ccccc1)O2 (stereo not given),Active
2,Cc1ccc2[nH]c(-c3ccccc3)c(C3C=C(c4ccc(Cl)cc4)Oc4[nH]c(=O)nc(N)c43)c2c1 (stereo not given),Active

# Test system: Aspergillus flavus
# Test: Antimicrobial activity against Aspergillus flavus MTCC 1973 at 500 ug/ml after 72 hrs by cup plate method
# Type: functional
# Conditions: MTCC 1973, 72 h, read-out: IZ
row,Structure (SMILES),zone of inhibition at 500 µg/mL
1,Nc1n[nH]c2c1C(c1c(-c3ccccc3)[nH]c3ccccc13)C=C(c1ccccc1)O2 (stereo not given),10 mm
2,Cc1ccc2[nH]c(-c3ccccc3)c(C3C=C(c4ccc(Cl)cc4)Oc4[nH]c(=O)nc(N)c43)c2c1 (stereo not given),8 mm

# Test system: Aspergillus flavus
# Test: Antimicrobial activity against Aspergillus flavus MTCC 1973 at 750 ug/ml after 72 hrs by cup plate method
# Type: functional
# Conditions: MTCC 1973, 72 h, read-out: IZ
row,Structure (SMILES),zone of inhibition at 750 µg/mL
1,Nc1n[nH]c2c1C(c1c(-c3ccccc3)[nH]c3ccccc13)C=C(c1ccccc1)O2 (stereo not given),10 mm
2,Cc1ccc2[nH]c(-c3ccccc3)c(C3C=C(c4ccc(Cl)cc4)Oc4[nH]c(=O)nc(N)c43)c2c1 (stereo not given),5 mm

# Test system: Aspergillus flavus
# Test: Antimicrobial activity against Aspergillus flavus MTCC 1973 at 1000 ug/ml after 72 hrs by cup plate method
# Type: functional
# Conditions: MTCC 1973, 72 h, read-out: IZ
row,Structure (SMILES),zone of inhibition at 1000 µg/mL
1,Nc1n[nH]c2c1C(c1c(-c3ccccc3)[nH]c3ccccc13)C=C(c1ccccc1)O2 (stereo not given),3 mm
2,Cc1ccc2[nH]c(-c3ccccc3)c(C3C=C(c4ccc(Cl)cc4)Oc4[nH]c(=O)nc(N)c43)c2c1 (stereo not given),4 mm

# Test system: Aspergillus terreus
# Test: Antimicrobial activity against Aspergillus terreus MTCC 1782 at 500 ug/ml after 72 hrs by cup plate method
# Type: functional
# Conditions: MTCC 1782, 72 h, read-out: IZ
row,Structure (SMILES),zone of inhibition at 500 µg/mL
1,Nc1n[nH]c2c1C(c1c(-c3ccccc3)[nH]c3ccccc13)C=C(c1ccccc1)O2 (stereo not given),5 mm
2,Cc1ccc2[nH]c(-c3ccccc3)c(C3C=C(c4ccc(Cl)cc4)Oc4[nH]c(=O)nc(N)c43)c2c1 (stereo not given),7 mm

# Test system: Aspergillus terreus
# Test: Antimicrobial activity against Aspergillus terreus MTCC 1782 at 750 ug/ml after 72 hrs by cup plate method
# Type: functional
# Conditions: MTCC 1782, 72 h, read-out: IZ
row,Structure (SMILES),zone of inhibition at 750 µg/mL
1,Nc1n[nH]c2c1C(c1c(-c3ccccc3)[nH]c3ccccc13)C=C(c1ccccc1)O2 (stereo not given),5 mm
2,Cc1ccc2[nH]c(-c3ccccc3)c(C3C=C(c4ccc(Cl)cc4)Oc4[nH]c(=O)nc(N)c43)c2c1 (stereo not given),6 mm

# Test system: Aspergillus terreus
# Test: Antimicrobial activity against Aspergillus terreus MTCC 1782 at 1000 ug/ml after 72 hrs by cup plate method
# Type: functional
# Conditions: MTCC 1782, 72 h, read-out: IZ
row,Structure (SMILES),zone of inhibition at 1000 µg/mL
1,Nc1n[nH]c2c1C(c1c(-c3ccccc3)[nH]c3ccccc13)C=C(c1ccccc1)O2 (stereo not given),5 mm
2,Cc1ccc2[nH]c(-c3ccccc3)c(C3C=C(c4ccc(Cl)cc4)Oc4[nH]c(=O)nc(N)c43)c2c1 (stereo not given),5 mm

# Test system: Aspergillus oryzae
# Test: Antimicrobial activity against Aspergillus oryzae MTCC 3567 at 500 ug/ml after 72 hrs by cup plate method
# Type: functional
# Conditions: MTCC 3567, 72 h, read-out: IZ
row,Structure (SMILES),zone of inhibition at 500 µg/mL
1,Nc1n[nH]c2c1C(c1c(-c3ccccc3)[nH]c3ccccc13)C=C(c1ccccc1)O2 (stereo not given),6 mm
2,Cc1ccc2[nH]c(-c3ccccc3)c(C3C=C(c4ccc(Cl)cc4)Oc4[nH]c(=O)nc(N)c43)c2c1 (stereo not given),8 mm

# Test system: Aspergillus oryzae
# Test: Antimicrobial activity against Aspergillus oryzae MTCC 3567 at 750 ug/ml after 72 hrs by cup plate method
# Type: functional
# Conditions: MTCC 3567, 72 h, read-out: IZ
row,Structure (SMILES),zone of inhibition at 750 µg/mL
1,Nc1n[nH]c2c1C(c1c(-c3ccccc3)[nH]c3ccccc13)C=C(c1ccccc1)O2 (stereo not given),5 mm
2,Cc1ccc2[nH]c(-c3ccccc3)c(C3C=C(c4ccc(Cl)cc4)Oc4[nH]c(=O)nc(N)c43)c2c1 (stereo not given),8 mm

# Test system: Aspergillus oryzae
# Test: Antimicrobial activity against Aspergillus oryzae MTCC 3567 at 1000 ug/ml after 72 hrs by cup plate method
# Type: functional
# Conditions: MTCC 3567, 72 h, read-out: IZ
row,Structure (SMILES),zone of inhibition at 1000 µg/mL
1,Nc1n[nH]c2c1C(c1c(-c3ccccc3)[nH]c3ccccc13)C=C(c1ccccc1)O2 (stereo not given),10 mm
2,Cc1ccc2[nH]c(-c3ccccc3)c(C3C=C(c4ccc(Cl)cc4)Oc4[nH]c(=O)nc(N)c43)c2c1 (stereo not given),8 mm

# Test system: Aspergillus niger
# Test: Antimicrobial activity against Aspergillus niger MTCC 281 at 500 ug/ml after 72 hrs by cup plate method
# Type: functional
# Conditions: MTCC 281, 72 h, read-out: IZ
row,Structure (SMILES),zone of inhibition at 500 µg/mL
1,Nc1n[nH]c2c1C(c1c(-c3ccccc3)[nH]c3ccccc13)C=C(c1ccccc1)O2 (stereo not given),5 mm
2,Cc1ccc2[nH]c(-c3ccccc3)c(C3C=C(c4ccc(Cl)cc4)Oc4[nH]c(=O)nc(N)c43)c2c1 (stereo not given),5 mm

# Test system: Aspergillus niger
# Test: Antimicrobial activity against Aspergillus niger MTCC 281 at 750 ug/ml after 72 hrs by cup plate method
# Type: functional
# Conditions: MTCC 281, 72 h, read-out: IZ
row,Structure (SMILES),zone of inhibition at 750 µg/mL
1,Nc1n[nH]c2c1C(c1c(-c3ccccc3)[nH]c3ccccc13)C=C(c1ccccc1)O2 (stereo not given),5 mm
2,Cc1ccc2[nH]c(-c3ccccc3)c(C3C=C(c4ccc(Cl)cc4)Oc4[nH]c(=O)nc(N)c43)c2c1 (stereo not given),4 mm

# Test system: Aspergillus niger
# Test: Antimicrobial activity against Aspergillus niger MTCC 281 at 1000 ug/ml after 72 hrs by cup plate method
# Type: functional
# Conditions: MTCC 281, 72 h, read-out: IZ
row,Structure (SMILES),zone of inhibition at 1000 µg/mL
1,Nc1n[nH]c2c1C(c1c(-c3ccccc3)[nH]c3ccccc13)C=C(c1ccccc1)O2 (stereo not given),6 mm
2,Cc1ccc2[nH]c(-c3ccccc3)c(C3C=C(c4ccc(Cl)cc4)Oc4[nH]c(=O)nc(N)c43)c2c1 (stereo not given),6 mm

# Test system: Pseudomonas aeruginosa
# Test: Antimicrobial activity against Pseudomonas aeruginosa MTCC 1688 at 500 ug/ml after 24 hrs by cup plate method
# Type: functional
# Conditions: MTCC 1688, 24 h, read-out: IZ
row,Structure (SMILES),zone of inhibition at 500 µg/mL
1,Nc1n[nH]c2c1C(c1c(-c3ccccc3)[nH]c3ccccc13)C=C(c1ccccc1)O2 (stereo not given),12 mm
2,Cc1ccc2[nH]c(-c3ccccc3)c(C3C=C(c4ccc(Cl)cc4)Oc4[nH]c(=O)nc(N)c43)c2c1 (stereo not given),0 mm

# Test system: Pseudomonas aeruginosa
# Test: Antimicrobial activity against Pseudomonas aeruginosa MTCC 1688 at 750 ug/ml after 24 hrs by cup plate method
# Type: functional
# Conditions: MTCC 1688, 24 h, read-out: IZ
row,Structure (SMILES),zone of inhibition at 750 µg/mL
1,Nc1n[nH]c2c1C(c1c(-c3ccccc3)[nH]c3ccccc13)C=C(c1ccccc1)O2 (stereo not given),12 mm
2,Cc1ccc2[nH]c(-c3ccccc3)c(C3C=C(c4ccc(Cl)cc4)Oc4[nH]c(=O)nc(N)c43)c2c1 (stereo not given),0 mm

# Test system: Pseudomonas aeruginosa
# Test: Antimicrobial activity against Pseudomonas aeruginosa MTCC 1688 at 1000 ug/ml after 24 hrs by cup plate method
# Type: functional
# Conditions: MTCC 1688, 24 h, read-out: IZ
row,Structure (SMILES),zone of inhibition at 1000 µg/mL
1,Nc1n[nH]c2c1C(c1c(-c3ccccc3)[nH]c3ccccc13)C=C(c1ccccc1)O2 (stereo not given),12 mm
2,Cc1ccc2[nH]c(-c3ccccc3)c(C3C=C(c4ccc(Cl)cc4)Oc4[nH]c(=O)nc(N)c43)c2c1 (stereo not given),0 mm

# Test system: Klebsiella pneumoniae
# Test: Antimicrobial activity against Klebsiella pneumoniae NCTC 13368 at 500 ug/ml after 24 hrs by cup plate method
# Type: functional
# Conditions: NCTC 13368, 24 h, read-out: IZ
row,Structure (SMILES),zone of inhibition at 500 µg/mL
1,Nc1n[nH]c2c1C(c1c(-c3ccccc3)[nH]c3ccccc13)C=C(c1ccccc1)O2 (stereo not given),10 mm
2,Cc1ccc2[nH]c(-c3ccccc3)c(C3C=C(c4ccc(Cl)cc4)Oc4[nH]c(=O)nc(N)c43)c2c1 (stereo not given),4 mm

# Test system: Klebsiella pneumoniae
# Test: Antimicrobial activity against Klebsiella pneumoniae NCTC 13368 at 750 ug/ml after 24 hrs by cup plate method
# Type: functional
# Conditions: NCTC 13368, 24 h, read-out: IZ
row,Structure (SMILES),zone of inhibition at 750 µg/mL
1,Nc1n[nH]c2c1C(c1c(-c3ccccc3)[nH]c3ccccc13)C=C(c1ccccc1)O2 (stereo not given),9 mm
2,Cc1ccc2[nH]c(-c3ccccc3)c(C3C=C(c4ccc(Cl)cc4)Oc4[nH]c(=O)nc(N)c43)c2c1 (stereo not given),3 mm

# Test system: Klebsiella pneumoniae
# Test: Antimicrobial activity against Klebsiella pneumoniae NCTC 13368 at 1000 ug/ml after 24 hrs by cup plate method
# Type: functional
# Conditions: NCTC 13368, 24 h, read-out: IZ
row,Structure (SMILES),zone of inhibition at 1000 µg/mL
1,Nc1n[nH]c2c1C(c1c(-c3ccccc3)[nH]c3ccccc13)C=C(c1ccccc1)O2 (stereo not given),8 mm
2,Cc1ccc2[nH]c(-c3ccccc3)c(C3C=C(c4ccc(Cl)cc4)Oc4[nH]c(=O)nc(N)c43)c2c1 (stereo not given),3 mm

# Test system: Staphylococcus aureus
# Test: Antimicrobial activity against Staphylococcus aureus ATCC 29513 at 500 ug/ml after 24 hrs by cup plate method
# Type: functional
# Conditions: ATCC 29513, 24 h, read-out: IZ
row,Structure (SMILES),zone of inhibition at 500 µg/mL
1,Nc1n[nH]c2c1C(c1c(-c3ccccc3)[nH]c3ccccc13)C=C(c1ccccc1)O2 (stereo not given),2 mm
2,Cc1ccc2[nH]c(-c3ccccc3)c(C3C=C(c4ccc(Cl)cc4)Oc4[nH]c(=O)nc(N)c43)c2c1 (stereo not given),5 mm

# Test system: Staphylococcus aureus
# Test: Antimicrobial activity against Staphylococcus aureus ATCC 29513 at 750 ug/ml after 24 hrs by cup plate method
# Type: functional
# Conditions: ATCC 29513, 24 h, read-out: IZ
row,Structure (SMILES),zone of inhibition at 750 µg/mL
1,Nc1n[nH]c2c1C(c1c(-c3ccccc3)[nH]c3ccccc13)C=C(c1ccccc1)O2 (stereo not given),2 mm
2,Cc1ccc2[nH]c(-c3ccccc3)c(C3C=C(c4ccc(Cl)cc4)Oc4[nH]c(=O)nc(N)c43)c2c1 (stereo not given),5 mm

# Test system: Staphylococcus aureus
# Test: Antimicrobial activity against Staphylococcus aureus ATCC 29513 at 1000 ug/ml after 24 hrs by cup plate method
# Type: functional
# Conditions: ATCC 29513, 24 h, read-out: IZ
row,Structure (SMILES),zone of inhibition at 1000 µg/mL
1,Nc1n[nH]c2c1C(c1c(-c3ccccc3)[nH]c3ccccc13)C=C(c1ccccc1)O2 (stereo not given),2 mm
2,Cc1ccc2[nH]c(-c3ccccc3)c(C3C=C(c4ccc(Cl)cc4)Oc4[nH]c(=O)nc(N)c43)c2c1 (stereo not given),7 mm

# Test system: Escherichia coli
# Test: Antimicrobial activity against Escherichia coli MTCC 723 at 500 ug/ml after 24 hrs by cup plate method
# Type: functional
# Conditions: MTCC 723, 24 h, read-out: IZ
row,Structure (SMILES),zone of inhibition at 500 µg/mL
1,Nc1n[nH]c2c1C(c1c(-c3ccccc3)[nH]c3ccccc13)C=C(c1ccccc1)O2 (stereo not given),10 mm
2,Cc1ccc2[nH]c(-c3ccccc3)c(C3C=C(c4ccc(Cl)cc4)Oc4[nH]c(=O)nc(N)c43)c2c1 (stereo not given),10 mm

# Test system: Escherichia coli
# Test: Antimicrobial activity against Escherichia coli MTCC 723 at 750 ug/ml after 24 hrs by cup plate method
# Type: functional
# Conditions: MTCC 723, 24 h, read-out: IZ
row,Structure (SMILES),zone of inhibition at 750 µg/mL
1,Nc1n[nH]c2c1C(c1c(-c3ccccc3)[nH]c3ccccc13)C=C(c1ccccc1)O2 (stereo not given),9 mm
2,Cc1ccc2[nH]c(-c3ccccc3)c(C3C=C(c4ccc(Cl)cc4)Oc4[nH]c(=O)nc(N)c43)c2c1 (stereo not given),8 mm

# Test system: Escherichia coli
# Test: Antimicrobial activity against Escherichia coli MTCC 723 at 1000 ug/ml after 24 hrs by cup plate method
# Type: functional
# Conditions: MTCC 723, 24 h, read-out: IZ
row,Structure (SMILES),zone of inhibition at 1000 µg/mL
1,Nc1n[nH]c2c1C(c1c(-c3ccccc3)[nH]c3ccccc13)C=C(c1ccccc1)O2 (stereo not given),9 mm
2,Cc1ccc2[nH]c(-c3ccccc3)c(C3C=C(c4ccc(Cl)cc4)Oc4[nH]c(=O)nc(N)c43)c2c1 (stereo not given),3 mm
